In patent US20240261243A1, “NITRIC OXIDE DONORS, COMPOSITIONS, AND METHODS OF USE” (priority 2020, published 2024) one finds NO content data, which are given here for one molecule.

The nature of this series: NO storage and release measurement (chemiluminescence nitric oxide analyzer). The series is classed as physicochemical. Here is the method: N-diazeniumdiolates NO scaffolds are pH-triggered NO-release donors. Reacting with proton in the physiological condition (e.g., 37° C., pH 7.4), 1 mole of N-diazeniumdiolate regenerates 1 mole of the parent secondary amine compounds and two moles of NO radicals. The real-time detection of NO was performed by using a chemiluminescence-based nitric oxide analyzer (NOA). The total NO storage and dissociation kinetics of water-soluble NO Donors were measured in physiological condition (pH 7.40, 37° C.). The resulting NO-release parameters (e.g., total NO storage, half-life of NO release, maximum flux, and conversion efficiency) were evaluated for suitability as a pharmaceutical product.
Transfer the solution into the high-pressure vessel and purge the headspace with nitrogen. Mix the solution and set nitric oxide pressure to 25 bar (temp 20° C.). Allow the reaction to run for minimum of 3 days. Stop the reaction by venting the NO. Precipitate the reaction product in acetone (10:1 acetone:reaction mixture). Filter the precipitate and vacuum dry.
We sought to determine whether an NO donor and gallium nitrate have antimicrobial synergy against a lab strain of P. aeruginosa (PAK). The Checkerboard assay (described herein) was used with a hepta-substituted cyclodextrin-based NO donor (hereinafter referred to as BIOC76) having approximately ˜4.7 μmol NO/mg dry powder.

Consider `O=NN(O)N(CCO)CC1OC2OC3C(CN(CCO)N(O)N=O)OC(OC4C(CN(CCO)N(O)N=O)OC(OC5C(CN(CCO)N(O)N=O)OC(OC6C(CN(CCO)N(O)N=O)OC(OC7C(CN(CCO)N(O)N=O)OC(OC8C(CN(CCO)N(O)N=O)OC(OC1C(O)C2O)C(O)C8O)C(O)C7O)C(O)C6O)C(O)C5O)C(O)C4O)C(O)C3O` (stereo not shown) [BIOC76], for which the NO content was about 4.7 μmol NO/mg dry powder.
